Measurements reported in paper PMC3598812, “Evaluation of Anti-Hyperalgesic and Analgesic Effects of Two Benzodiazepines in Human Experimental Pain: A Randomized Placebo-Controlled Study” (PLoS ONE, 2013).
Entries after “also recorded” stand apart in the source; their conditions may differ.

Assays:
[1] = tested on: healthy male volunteers; test: Intramuscular repeated (20 stimuli) electrical stimulation, VAS; type: in vivo, human; set-up: AUC of VAS during 20 intramuscular electrical stimuli: unit not given beside the values; details: for Maximal VAS during 20 intramuscular electrical stimuli: VAS 0-10; for Maximal VAS during 20 intramuscular electrical stimuli / AUC of VAS during 20 intramuscular electrical stimuli: mean (SD)
Protocol: The stimulus burst used for single stimulus was repeated for a train of 20 pulses at 2 Hz, at an intensity corresponding to the temporal summation threshold. During this 10 s stimulation, pain intensity was continuously rated by the subject with an electronic VAS, and the area under the curve (AUC) was computed. Additionally, the maximal VAS during stimulation was recorded.
(§1) A needle was placed in the tibialis anterior muscle, 14 cm distal from the caudal end of the patella and 20 mm in depth. The same single and repeated stimulation patterns and the same procedure described for cutaneous stimulation were used.

[2] = tested on: healthy male volunteers; test: Area of static hyperalgesia after intradermal capsaicin injection (512 mN von Frey hair); type: in vivo, human; details: for Change in the area of static hyperalgesia over time: main analysis, pairwise multiple comparisons within each drug; for Area of static hyperalgesia: single oral dose (clobazam 20 mg, clonazepam 1 mg, tolterodine 1 mg), mean (SD); for Change in the area of static hyperalgesia between 60 min and the measurement after flumazenil: subgroup analysis (n = 8), pairwise comparisons within each drug
Source text: Intradermal injection of capsaicin causes a brief stinging/burning pain at the injection site followed by development of secondary hyperalgesia, i.e. hyperalgesia detected at surrounding (not injected) skin [15], [16]. Secondary hyperalgesia after intradermal capsaicin is the result of sensitization of the central nervous system, which is one of the most relevant aspects of neuroplastic changes. This model was sensitive to the action of GABAergic compounds in animal studies.
The capsaicin solution was prepared by the Hospital Pharmacy and underwent sterile filtration into sterile septum-sealed vials. The sterile solution (1 mg/ml) was placed into sterile syringes and used for intradermal injection at room temperature. The skin temperature was measured using a digital thermometer, and was 32°C+/−1 in all subjects.
Subjects remained semi-supine during the experiment. Before capsaicin injection, the skin of the forearm was cleaned using an antiseptic wipe and allowed to air dry. The injection site was marked midway between the elbow and the wrist. Using a surgical skin marker, 4 lines were drawn through the injection site, so that they intersected the corners of a regular octagon (figure 2). These lines were marked every 0.5 cm from the center to the edges using a predefined grid. […] We determined the area of hyperalgesia by adding the areas of each triangle in which hyperalgesia was recorded.
Using a 1-ml tuberculin syringe fitted with a 27-gauge disposable needle, 100 µl capsaicin were injected […] into the skin, at the intersection of the 4 vectors previously drawn. A white skin elevation appeared during injection ensuring correct injection.
Static mechanical hyperalgesia was judged to be present when the subjects reported that applying a 512 mN von Frey Hair, 5 and 30 minutes after capsaicin injection, elicited pain with an intensity of at least 4 using a numerical rating scale (NRS, whereby 0 = no pain and 10 = worst pain). Only these subjects were included in the study. In order to document pain induction, the subject recorded pain intensity at injection and 5 minutes post-injection using a 10 cm visual analogue pain scale (VAS), whereby 0 = no pain and 10 = worst pain imaginable.
The area of secondary hyperalgesia was assessed using a calibrated 512 mN von Frey hair. The punctuated probe was moved along the 8 radial lines defined above, starting approximately 6 cm away from the site of injection, at each mark in steps of 0.5 cm. The weighted von Frey hair was placed gently on the skin and the load was applied for 2 seconds. The volunteers were asked to report when the pricking sensation changed to a pain sensation. At least 4 seconds elapsed between consecutive stimuli. This procedure was repeated for each vector. The number corresponding to the marker at which sensation changes as described above was noted and the individual numbers were used to calculate the area of hyperalgesia.
The flow of the experiment is illustrated in figure 3. After training, basal values for the pain tests were determined. The study medication was given immediately after the intradermal injection of capsaicin. Thus, basal values were recorded for all tests, except for those related to capsaicin injection. Because of the relatively short duration of hyperalgesia induced by capsaicin, the recordings of basal values before drug administration would yield a too short testing procedure.

[3] = tested on: healthy male volunteers; test: Cutaneous repeated (5 stimuli) electrical stimulation, temporal summation threshold; type: in vivo, human; details: mean (SD)
Source text: (§2) The stimulus burst used for single stimulus was repeated 5 times at 2 Hz, at constant intensity. The current intensity of the 5 stimuli was increased from 1 mA in steps of 0.5 mA until the subjects felt pain during the last 2–3 of the 5 stimuli (indicating temporal summation).
Three assessments were made and the mean of these 3 measurements was used for the data analysis.

[4] = tested on: healthy male volunteers; test: Conditioned pain modulation (cold pressor test and pressure algometry); type: in vivo, human; details: difference in pressure pain detection threshold after vs before cold pressor test, mean (SD)
Source text: This method explores the endogenous modulation of nociceptive input. Under normal conditions, pain after application of a “test” nociceptive stimulus is attenuated by the application of an additional conditioning noxious stimulus to a remote body region, reflecting diffuse endogenous inhibition, [20]. In the present study, pressure pain detection threshold and cold pressure test (see below) were used as test and conditioning stimuli, respectively. An increase in pressure pain detection threshold immediately after cold pressure test was an indication of CPM.
The subjects placed their hand into a container filled with ice water. In order to maximize heterotopic stimulation, the hand contralateral to the side of pressure stimulation was used. The water was regularly mixed to maintain the temperature near to 0°C. The temperature of the water near the hand was monitored by a thermometer with a digital display (±0.1°C). The subjects were asked to keep the hand in the water until they felt an intolerable sensation of pain and were forced to remove the hand from the container, with a maximum time of 2 min.
Pressure pain detection threshold was measured again at the same time as the subject was withdrawing the hand from the water (one single measurement). CPM was measured as the difference in pressure pain detection threshold between measurements after and before the cold pressure test.

[5] = tested on: patients / volunteers; details: ref Micromedex 2009, cited from earlier work
[6] = tested on: healthy male volunteers; test: Psychomotor performance, digit symbol substitution test (DSST); details: for DSST-score: single oral dose (clobazam 20 mg, clonazepam 1 mg, tolterodine 1 mg), mean (SD)
Protocol: The psychomotor performance was assessed by the digit symbol substitution test (DSST), a subscale of the Wechsler Adult Intelligence Scale. The DSST evaluates the ability to concentrate and modifications in processing information [23]. It is a two-minute paper-and-pencil test. The subject was asked to replace digits with corresponding symbols according to a code given on the same sheet of paper. The score consists in the total number and the correct number of symbols drawn.
Pressure pain, conditioned pain modulation (CPM), intramuscular electrical pain tests, cuff algometry and DSST were performed 120 min after drug intake.
After 15 min, the whole battery of tests was performed.

[7] = tested on: healthy male volunteers; test: Intramuscular repeated (5 stimuli) electrical stimulation pain threshold; type: in vivo, human; details: for Change in pain threshold after 5 intramuscular electrical stimuli between baseline and 120 minutes: main analysis, pairwise multiple comparison; for Change in pain detection threshold after 5 intramuscular electrical stimuli from baseline to peak value: peak value analysis, pairwise comparisons within each drug
Source text: as §2, §1

[8] = trial protocol; ref Micromedex 2009; cited from earlier work
[9] = baseline before medication, per drug session
[10] = single oral dose (clobazam 20 mg, clonazepam 1 mg, tolterodine 1 mg), 120 min after medication
[11] = single oral dose (clobazam 20 mg, clonazepam 1 mg, tolterodine 1 mg), after flumazenil 0.2 mg iv
[12] = single oral dose (clobazam 20 mg, clonazepam 1 mg, tolterodine 1 mg), 30 min after medication
[13] = single oral dose (clobazam 20 mg, clonazepam 1 mg, tolterodine 1 mg), 60 min after medication
[14] = single oral dose (clobazam 20 mg, clonazepam 1 mg, tolterodine 1 mg), 90 min after medication
[15] = patients treated for panic disorder
[16] = baseline before medication, per drug session, mean (SD)
[17] = single oral dose (clobazam 20 mg, clonazepam 1 mg, tolterodine 1 mg), 120 min after medication, mean (SD)
[18] = single oral dose (clobazam 20 mg, clonazepam 1 mg, tolterodine 1 mg), after flumazenil 0.2 mg iv, mean (SD)

Row | Compound | Maximal VAS during 20 intramuscular electrical stimuli [1, 9] | Maximal VAS during 20 intramuscular electrical stimuli [1, 10] | Maximal VAS during 20 intramuscular electrical stimuli [1, 11] | AUC of VAS during 20 intramuscular electrical stimuli [1, 9] | AUC of VAS during 20 intramuscular electrical stimuli [1, 10] | AUC of VAS during 20 intramuscular electrical stimuli [1, 11] | Change in the area of static hyperalgesia over time [2] | Area of static hyperalgesia ([2]; 30 min after medication) | Area of static hyperalgesia ([2]; 60 min after medication) | Area of static hyperalgesia ([2]; 90 min after medication) | Area of static hyperalgesia ([2]; 120 min after medication) | Area of static hyperalgesia ([2]; after flumazenil 0.2 mg iv) | Pain threshold after 5 cutaneous electrical stimuli [3, 9] | Pain threshold after 5 cutaneous electrical stimuli [3, 12] | Pain threshold after 5 cutaneous electrical stimuli [3, 13] | Pain threshold after 5 cutaneous electrical stimuli [3, 14] | Pain threshold after 5 cutaneous electrical stimuli [3, 10] | Pain threshold after 5 cutaneous electrical stimuli [3, 11] | Conditioned pain modulation [4, 9] | Conditioned pain modulation [4, 10] | further results
1 | O=C1CN=C(c2ccccc2Cl)c2cc([N+](=O)[O-])ccc2N1 [Clonazepam] | 4.3 (1.4) | 3.2 (2.4) | 2.8 (2.0) | 307 (138) | 236 (204) | 209 (178) | no statistically significant increase | 37.9 (13.6) cm^2 | 45.6 (15.3) cm^2 | 43.4 (14.3) cm^2 | 41.9 (11.6) cm^2 | 39.4 (12.3) cm^2 | 8.2 (3.1) mA | 8.2 (3.0) mA | 8.5 (2.9) mA | 8.8 (3.2) mA | 9.1 (3.1) mA | 9.2 (3.3) mA | 70 (113) kPa | 85 (77) kPa | Maximal VAS during 20 intramuscular electrical stimuli, comparison among drugs ([1]; subgroup analysis (n = 8), pairwise comparisons vs tolterodine and clobazam): lower values; also recorded: Significantly lower maximal VAS with clonazepam, compared with tolterodine and clobazam in the subgroup analysis; Change in the area of static hyperalgesia between 60 min and the measurement after flumazenil [2]: Decrease in the area of hyperalgesia after Clonazepam; Change in the area of static hyperalgesia between 60 min and the measurement after flumazenil ([2]; listed as clonazepam): significantly decreases; Conditioned pain modulation [4, 11]: 74 (86) kPa; Dizziness, share of patients [5, 15]: 8%; Somnolence, share of patients [5, 15]: approximately 37%; DSST score compared with tolterodine at 120 min ([6]; main analysis, pairwise comparison within the time-points): significantly associated to a lower score; DSST-score ([6]; 120 min after drug administration): 69.3 (15.8); DSST-score ([6]; after flumazenil 0.2 mg iv): 79.1 (14.5); Psychomotor performance (DSST) at 120 minutes compared with the other two drugs ([6]; subgroup analysis (n = 8), pairwise multiple comparison): lower psychomotor performance; Change of DSST score after flumazenil injection ([6]; subgroup analysis (n = 8), within drug): significantly increased; Pain threshold after 5 intramuscular electrical stimuli [7, 16]: 1.6 (1.1) mA; Change in pain threshold after 5 intramuscular electrical stimuli between baseline and 120 minutes [7]: statistically significant increase; also recorded: Significant increase in pain thresholds; Change in pain detection threshold after 5 intramuscular electrical stimuli from baseline to peak value [7]: significant increase; also recorded: Consistent for an increase in pain thresholds after clobazam and clonazepam; Pain threshold after 5 intramuscular electrical stimuli [7, 17]: 2.3 (1.6) mA; Pain threshold after 5 intramuscular electrical stimuli [7, 18]: 2.9 (2.3) mA; Pain threshold after 5 intramuscular electrical stimuli ([7]; subgroup analysis (n = 8), 120 minutes, mean): 2.93 mA; Pain threshold after 5 intramuscular electrical stimuli ([7]; subgroup analysis (n = 8), after flumazenil administration, mean): 3.58 mA; Pain threshold after 5 intramuscular electrical stimuli ([7]; subgroup analysis (n = 8), baseline, mean): 1.69 mA
2 | Cc1ccc(O)c([C@H](CCN(C(C)C)C(C)C)c2ccccc2)c1 [Tolterodine] | 4.5 (1.6) | 3.8 (2.4) | 4.1 (2.5) | 323 (127) | 286 (198) | 316 (206) | significantly increased; also recorded: Significant increase in the area of hyperalgesia only for tolterodine | 36.3 (10.6) cm^2 | 40.6 (11.5) cm^2 | 43.8 (11.9) cm^2 | 44.7 (10.9) cm^2 | 47.6 (13.7) cm^2 | 8.8 (2.3) mA | 9.0 (2.4) mA | 9.2 (2.2) mA | 9.5 (2.2) mA | 9.7 (2.1) mA | 10.0 (2.3) mA | 68 (100) kPa | 72 (114) kPa | Conditioned pain modulation [4, 11]: 77 (79) kPa; Dizziness, expected side effect frequency [5]: 2%; Somnolence, expected side effect frequency [5]: 3%; Oral bioavailability [8]: 77%; Pain threshold after 5 intramuscular electrical stimuli [7, 16]: 1.6 (1.2) mA; Change in pain threshold after 5 intramuscular electrical stimuli between baseline and 120 minutes [7]: not; Change in pain threshold after 5 intramuscular electrical stimuli between baseline and 120 minutes ([7]; listed as tolterodine): no statistically significant change; Change in pain detection threshold after 5 intramuscular electrical stimuli from baseline to peak value [7]: not; Pain threshold after 5 intramuscular electrical stimuli [7, 17]: 1.9 (1.2) mA; Pain threshold after 5 intramuscular electrical stimuli [7, 18]: 2.2 (1.5) mA
